How the values were obtained:
[1] = system: HepG2 cells; assay: MTT cytotoxicity assay, HepG2; type: cell-based, human; conditions: 72 h, mean ± SD (n = 3)
From the text: (§1) HepG2 (human hepatocellular carcinoma), Hela (human cervical cancer), HT-29 (human colon carcinoma), MDCK (Madin–Darby canine kidney), H9C2 (rat myocardial cells) and HY926 were purchased from the Chinese Academy of Medical Sciences and Peking Union Medical College. All of these cell lines were maintained in RPMI-1640 (DMEM) supplemented with 10% (v/v) fetal bovine serum (FBS) and 1% (v/v) penicillin/streptomycin (Thermo Technologies, New York, NY, USA) under a humidified atmosphere containing 5% CO2 at 37 °C. To provide stock solutions which were used to prepare various concentrations of treatment media, GA and hybrids were added a volume of DMSO.
(§2) The cytotoxicity of these compounds was evaluated on three human cancer cell lines (HepG2, HT-29, Hela) and three non-tumor cells lines (MDCK, HY926, H9C2) and MTT assay was performed to detect the cell proliferation. Simply, exponentially growing cells were cultured in 96-well plates (3 × 10^3 cells/well). And the plates were placed in a humidified atmosphere for 72 h at 37 °C with 5% CO2. After added MTT solution (5 mg/mL) 20 μL to each well, the plate was incubated for a further 4 h. Then the cell supernatant was removed and 150 μL DMSO was added. Finally, the absorbance was determined at wavelength of 490 nm with the ELISA. Wells without drugs were used to be blanks. The IC50 values were calculated using Logit-method. The following Eq. (1) was proposed to calculate the inhibitory rate of cell growth:1 %inhibition=1-Sample group OD/Control group OD×100%

[2] = system: HY926 cells; assay: MTT cytotoxicity assay, HY926 (non-tumor); type: cell-based
From the text: as §1, §2

[3] = system: H9C2 cells; assay: MTT cytotoxicity assay, H9C2 (non-tumor); type: cell-based, rat
From the text: as §1, §2

[4] = system: Hela cells; assay: Giemsa staining on Hela cells; type: cell-based, human; conditions: 5, 10, 20 μM, 72 h, with increase of concentration
Description: Hela cells were seeded in 12-well plates (5 × 10^3 cells/well), and then they were cultured for 24 h at 37 °C with 5% CO2. After that each group was added 8a, making the final concentration of 0, 5, 10, 20 μM respectively. After 72 h, the cell supernatant was removed and the cells were cleaned with PBS twice, then kept in PBS/ethanol (1:1) for 2 min and fixed with cold ethanol for 10 min. After discarding ethanol, the cells were stained with Giemsa (Giemsa, Molecular Probes/Invitrogen Life Technologies, Carlsbad, CA, USA) stained for 5 min and washed with water. In the end, the cells were observed and photographed under inverted phase-contrast microscope at a magnification of 200×.

[5] = system: caspase-3; assay: Caspase-3 activity assay (Ac-DEVD-pNA cleavage) in Hela cells; type: cell-based, human; conditions: 5, 10, 20 μM, 48 h
Description: Hela cells were seeded in dishes at a density of 5 × 10^5 cell per dish and the dishes were kept at 37 °C with 5% CO2 for 24 h. On the next day, various concentration of 8a (0, 5, 10, 20 μM) were added to the cells and cultured for 48 h. Pre-cooled PBS were added twice to wash the cells. After removal of the medium, ice-cold cell lysis buffer was added, and the cells were further incubated in an ice bath for 15 min, which contribute to the protein acquisition. The caspase-3 activity kit (Beyotime Institute of Biotechnology, Beijing, China) was used to determine the activity of caspase-3. A total of 50 μL cell lysates, 40 μL reaction buffer and 10 μL caspase-3 substrate (Ac-DEVDpNA) (2 mM) were added to 96-well plates. After 30 min of incubation, absorbance was measured at 405 nm, and samples were quantified with ELISA.

[6] = system: Kunming mice; assay: Acute toxicity by gavage in Kunming mice; type: in vivo
From the text: Forty healthy Kunming mice (weight 18–22 g) of both sexes were purchased from Beijing Vital River Laboratory Animal Technology Company Limited (Beijing, China). The mice were divided into two groups matched the same weight and size, along with the standard in our previous studies. In briefly, 20 mice were selected for blank control group, and the other 20 mice were for the treated group. All experiments followed the guidelines of “Regulation for the Administration of Affairs Concerning Experimental Animals” (State Council of China, 1988). All animals were placed in cages, fed with standard rodent chow and water ad libitum under a 12-h light–dark cycle. Before the experiments, the mice were deprived of food for 12 h but provided water freely. Then the treated group of both sexes were administered a single dose of 8a (0.3 mL/10 g) via gavage twice a day, which was prepared in advance in bean oil solution with the maximum suspended dose (50 mg/mL). The total administration of 8a was 3 g/kg during 8 h. And the blank control group were given bean oil by oral administration only. The mice’s general behavior was continuously noted in the first hour, intermittently observed in the next 4 h, and thereafter over a period of 24 h. Observations of the signs for toxicity and deaths were last for 14 days. The mortality response and behavior of toxic effects of mice were recorded.

[7] = system: HT-29 cells; assay: MTT cytotoxicity assay, HT-29; type: cell-based, human; conditions: 72 h, mean ± SD (n = 3)
From the text: as §1, §2

[8] = system: Hela cells; assay: MTT cytotoxicity assay, Hela; type: cell-based, human
From the text: as §1, §2

[9] = system: Hela cells; assay: Annexin V-FITC/PI flow cytometric apoptosis assay; type: cell-based, human; conditions: 72 h, control 7.5%
Description: Hela cells were seeded in 12-well plates (5 × 10^4 cells/well), which were placed in a humidified atmosphere for 24 h at 37 °C with 5% CO2. After treated with different concentrations of 8a (5, 10, 20 μM) for 72 h, all cells were collected respectively with the right amount of trypsin (without EDTA) digestion. After added 1 mL cold PBS, the cells were gently suspended and centrifuged at 1000 rpm for 5 min. The harvested cells were suspended in 200 μL binding buffer which contained 10 μL Annexin V-FITC and PI. After avoided light reaction for 15 min, the cells were analyzed with a flow cytometry (BD, USA).

[10] = system: MDCK cells; assay: MTT cytotoxicity assay, MDCK (non-tumor); type: cell-based, canine
From the text: as §1, §2

[11] = system: Hela cells; assay: H33342 staining on Hela cells; type: cell-based, human; conditions: 5, 10, 20 μM, 72 h, with increase of concentration
Description: H33342 staining was used to confirm whether the characteristic nuclear changes were associated with 8a in this assay. Hela cells were cultured in 12-well plates (5 × 10^4 cells/well), which were placed in a humidified atmosphere for 24 h at 37 °C with 5% CO2. And then each group was added 8a, making the final concentration of 0, 5, 10, 20 μM respectively. After 72 h, cell culture medium was discarded and the cells were washed twice with PBS. H33342 staining was then performed for 2 min and washed with water. In the end, the cells were observed and photographed under inverted phase-contrast microscope at a magnification of 200×.

[12] = MTT, 72 h, mean ± SD (n = 3), non-tumor cells

## COc1ccc(/C=C/C(=O)OC2CCC3(C)C(CCC4(C)C3C(=O)C=C3C5CC(C)(C(=O)O)CCC5(C)CCC34C)C2(C)C)c(OC)c1OC (stereo not drawn) [Compound 8a, (2,3,4-Trimethoxy) cinnamoyl-3β-hydroxy-11-oxoolean-12-en-30-oic acid]
[1]
  IC50: 21.5 ± 1.5 µM
[2]; 12.5 μM
  inhibition rate against HY926: 20.20%
[2]; [12]
  IC50: 27.7 ± 1.39 µM
[3]; 12.5 μM
  inhibition rate against H9C2: 3.56%
[3]; [12]
  IC50: > 50 µM
[4]
  morphological changes by Giemsa staining: cell loss, nuclei lysis, chromatin condensation and cytoplasmic shrinkage were aggravated
[5]
  caspase-3 activities in Hela cells: enhanced in a concentration-dependent manner
[6]; maximum tolerated dose 3 g/kg oral (gavage), 2 weeks observation, mice
  signs of toxicity or deaths: no signs of toxicity or deaths were observed
[6]; oral administration in mice
  LD50: exceeded 3.0 g/kg
[7]
  IC50: 15 ± 1.26 µM
[8]; 12.5 μM
  inhibition rate against Hela: 59.20%
[8]; MTT, 72 h, mean ± SD (n = 3)
  IC50: 8.54 ± 1.44 µM
[9]; 5 μM
  apoptosis ratio: 15.7%
[9]; 10 μM
  apoptosis ratio: 27.7%
[9]; 20 μM
  apoptosis ratio: 60%
[10]; 12.5 μM
  inhibition rate against MDCK: 38.56%
[10]; [12]
  IC50: 31.8 ± 2.79 µM
[11]
  nuclear changes by H33342 staining: the nuclear fragmentation, the cytoplasmic shrinkage, and the shape of apoptotic cells became irregular
